This data set relates to rodent carcinogenicity bioassays, tumor incidence. Briefly: CCRIS carcinogenicity studies. An outline of the steps: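 NCI-built, expert-reviewed records of carcinogenicity and related test outcomes (mutagenicity, tumor promotion/inhibition) compiled from published and report sources, historical span 1985-2011, not updated.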

Calls of active or inactive are those of the source. The rule behind the calls is not given here.

For `NC[N+](=O)[O-]`, the carcinogen call is “active; positive” (Species: RAT, Strain/Sex: BDVI/FEMALE, Route: GAVAGE, Dose: 0, 38, 76 MG/KG 1/WK FOR DURATION OF STUDY (STUDY DURATION: LIFETIME), Dose: 0, 38, 76 MG/KG 1/WK FOR DURATION OF STUDY (STUDY DURATION: LIFETIME), Tumor Site: Type of Lesion: SPINAL CORD: NEURINOMA, SPINAL NERVES: NEURINOMA) and “active; positive” (Species: RAT, Strain/Sex: BDVI/MALE, Route: GAVAGE, Dose: 0, 38, 76 MG/KG 1/WK FOR DURATION OF STUDY (STUDY DURATION: LIFETIME), Dose: 0, 38, 76 MG/KG 1/WK FOR DURATION OF STUDY (STUDY DURATION: LIFETIME), Tumor Site: Type of Lesion: SPINAL CORD: NEURINOMA, SPINAL NERVES: NEURINOMA).

Turning to `CC(Cl)(Cl)Cl`, the carcinogen call runs as follows: (Species: MOUSE, Strain/Sex: B6C3F1/FEMALE, Route: INHALATION, Dose: 0, 150, 500, 1500 PPM IN AIR 6 HR/D 5 D/WK FOR 24 MO (STUDY DURATION: 24 MO), Dose: 0, 150, 500, 1500 PPM IN AIR 6 HR/D 5 D/WK FOR 24 MO (STUDY DURATION: 24 MO)) “inactive; negative”; (Species: MOUSE, Strain/Sex: B6C3F1/MALE, Route: INHALATION, Dose: 0, 150, 500, 1500 PPM IN AIR 6 HR/D 5 D/WK FOR 24 MO (STUDY DURATION: 24 MO), Dose: 0, 150, 500, 1500 PPM IN AIR 6 HR/D 5 D/WK FOR 24 MO (STUDY DURATION: 24 MO)) “inactive; negative”; (Species: RAT, Strain/Sex: F344/FEMALE, Route: INHALATION, Dose: 0, 150, 500, 1500 PPM IN AIR 6 HR/D 5 D/WK FOR 24 MO (STUDY DURATION: 24 MO), Dose: 0, 150, 500, 1500 PPM IN AIR 6 HR/D 5 D/WK FOR 24 MO (STUDY DURATION: 24 MO)) “inactive; negative”; (Species: RAT, Strain/Sex: F344/MALE, Route: INHALATION, Dose: 0, 150, 500, 1500 PPM IN AIR 6 HR/D 5 D/WK FOR 24 MO (STUDY DURATION: 24 MO), Dose: 0, 150, 500, 1500 PPM IN AIR 6 HR/D 5 D/WK FOR 24 MO (STUDY DURATION: 24 MO)) “inactive; negative”.

Turning to `CN(C)C(=O)Nc1cccc(C(F)(F)F)c1`, the carcinogen call runs as follows: (Species: MOUSE, Strain/Sex: B6C3F1/FEMALE, Route: ORAL, Dose: 0, 500, 1000 PPM IN DIET FOR 103 WK (STUDY DURATION: 103-105 WK), Dose: 0, 500, 1000 PPM IN DIET FOR 103 WK (STUDY DURATION: 103-105 WK)) “inactive; negative”; (Species: MOUSE, Strain/Sex: B6C3F1/FEMALE, Route: ORAL, Dose: 0, 500, 1000 PPM IN DIET FOR 103 WK (STUDY DURATION: 103-105 WK), Dose: 0, 500, 1000 PPM IN DIET FOR 103 WK (STUDY DURATION: 103-105 WK), Tumor Site: Type of Lesion: LIVER: HEPATOCELLULAR CARCINOMA OR ADENOMA) “equivocal”; (Species: Mouse, Strain/Sex: CR CD-1/Female (60/Group), Route: Oral, Dose: 0, 10, 500, 2000 ppm of 96.1% fluometuron in diet for 104 wk, study duration 104 wk, Dose: 0, 10, 500, 2000 ppm of 96.1% fluometuron in diet for 104 wk, study duration 104 wk, Tumor Site: Type of Lesion: Lymphocytic lymphoma (highest dose only)) “active; positive”; (Species: Mouse, Strain/Sex: CR CD-1/Male (60/Group), Route: Oral, Dose: 0, 10, 500, 2000 ppm of 96.1% fluometuron in diet for 104 wk, study duration 104 wk, Dose: 0, 10, 500, 2000 ppm of 96.1% fluometuron in diet for 104 wk, study duration 104 wk, Tumor Site: Type of Lesion: Lung: Primary pulmonary neoplasia) “active; positive”; (Species: RAT, Strain/Sex: F344/FEMALE, Route: ORAL, Dose: 0, 125, 250 PPM IN DIET FOR 103 WK (STUDY DURATION: 103-105 WK), Dose: 0, 125, 250 PPM IN DIET FOR 103 WK (STUDY DURATION: 103-105 WK)) “inactive; negative”; (Species: RAT, Strain/Sex: F344/MALE, Route: ORAL, Dose: 0, 125, 250 PPM IN DIET FOR 103 WK (STUDY DURATION: 103-105 WK), Dose: 0, 125, 250 PPM IN DIET FOR 103 WK (STUDY DURATION: 103-105 WK)) “inactive; negative”. Besides, the carcinogen call reads like this: (Species: Rat, Strain/Sex: Fischer 344 CD-F/Female (60/Group), Route: Oral, Dose: 0, 10, 300, 1000 ppm of 96.1% fluometuron in diet for 2 yr, study duration 2 yr, Dose: 0, 10, 300, 1000 ppm of 96.1% fluometuron in diet for 2 yr, study duration 2 yr) “inactive; negative”; (Species: Rat, Strain/Sex: Fischer 344 CD-F/Male (60/Group), Route: Oral, Dose: 0, 10, 300, 1000 ppm of 96.1% fluometuron in diet for 2 yr, study duration 2 yr, Dose: 0, 10, 300, 1000 ppm of 96.1% fluometuron in diet for 2 yr, study duration 2 yr) “inactive; negative”.

Consider `CO/N=C(/C1=NOCCO1)c1ccccc1Oc1ncnc(Oc2ccccc2Cl)c1F`, for which the carcinogen call is, setting by setting: (Species: Mouse, Strain/Sex: CD-1/Female (50/Group), Route: Oral, Dose: 0, 29.5, 204.0, 1265.1 mg/kg/day of 94.3% - 94.5% fluoxastrobin in diet for 18 mo, study duration 18 mo, Dose: 0, 29.5, 204.0, 1265.1 mg/kg/day of 94.3% - 94.5% fluoxastrobin in diet for 18 mo, study duration 18 mo) “inactive; negative”; (Species: Mouse, Strain/Sex: CD-1/Male (50/Group), Route: Oral, Dose: 0, 18.6, 135.4, 775.6 mg/kg/day of 94.3% - 94.5% fluoxastrobin in diet for 18 mo, study duration 18 mo, Dose: 0, 18.6, 135.4, 775.6 mg/kg/day of 94.3% - 94.5% fluoxastrobin in diet for 18 mo, study duration 18 mo) “inactive; negative”; (Species: Rat, Strain/Sex: Wistar/Female (50/Group), Route: Oral, Dose: 0, 6.9, 35.2, 181.3, 1083.2 mg/kg/day of 94.3-94.6% fluoxastrobin in diet for 2 yr, study duration 2 yr, Dose: 0, 6.9, 35.2, 181.3, 1083.2 mg/kg/day of 94.3-94.6% fluoxastrobin in diet for 2 yr, study duration 2 yr, Tumor Site: Type of Lesion: Uterus: adenocarcinoma (highest dose only)) “active; positive”; (Species: Rat, Strain/Sex: Wistar/Male (50/Group), Route: Oral, Dose: 0, 2.1, 5.2, 53.0, 271.9 mg/kg/day of 94.3-94.6% fluoxastrobin in diet for 2 yr, study duration 2 yr, Dose: 0, 2.1, 5.2, 53.0, 271.9 mg/kg/day of 94.3-94.6% fluoxastrobin in diet for 2 yr, study duration 2 yr) “inactive; negative”.

As for `O=C(O)C[C@@H]1NC(=O)[C@H](Cc2ccccc2)NC1=O`, the carcinogen call runs as follows: (Species: MOUSE, Strain/Sex: SWISS/FEMALE, Route: INTRAVESICULAR, Dose: 0, 4-4.4 MG IN CHOLESTEROL PELLET (STUDY DURATION: 26 WK)) “inactive; negative”; (Species: MOUSE, Strain/Sex: SWISS/FEMALE, Route: INTRAVESICULAR, Dose: 0, 4-4.4 MG IN CHOLESTEROL PELLET (STUDY DURATION: 56 WK)) “inactive; negative”.

In the case of `Cc1ncc([N+](=O)[O-])n1CCO`, the carcinogen call (Species: MOUSE, Route: ORAL, Tumor Site: Type of Lesion: LUNG, LYMPHATIC SYSTEM: LYMPHOMA (NOS)) is “active; positive” and the carcinogen call (Species: RAT, Route: ORAL, Tumor Site: Type of Lesion: MAMMARY GLAND) is “active; positive”.

As to `Nc1ccc2ccccc2c1`, the carcinogen call (Species: DOG, Route: ORAL, Tumor Site: Type of Lesion: URINARY BLADDER) was “active; positive”; the carcinogen call (Species: DOG, Strain/Sex: BEAGLE/FEMALE, Route: ORAL, Dose: 21.3 MG/KG 5/WK, Tumor Site: Type of Lesion: URINARY BLADDER: TRANSITIONAL CELL CARCINOMA) is “active; positive”; the carcinogen call (Species: DOG, Strain/Sex: BEAGLE/MALE, Route: ORAL, Dose: 18.4 MG/KG 5/WK, Tumor Site: Type of Lesion: URINARY BLADDER: TRANSITIONAL CELL CARCINOMA) is “active; positive”; the carcinogen call (Species: HAMSTER, Route: ORAL, Tumor Site: Type of Lesion: URINARY BLADDER) is “active; positive”; the carcinogen call (Species: HUMAN, Route: ORAL, INHALATION, DERMAL, Tumor Site: Type of Lesion: URINARY BLADDER) is “active; positive”; the carcinogen call (Species: MONKEY, Route: ORAL, Tumor Site: Type of Lesion: URINARY BLADDER) was “active; positive”. Further, where the note is “Species: MOUSE, Route: ORAL, Tumor Site: Type of Lesion: LIVER”, the carcinogen call is “active; positive”.

For the compound `Cc1ccc(S(=O)(=O)Oc2ccc(N=Nc3ccc(-c4ccc(N=Nc5c(O)ccc6cc(S(=O)(=O)O)cc(S(=O)(=O)O)c56)c(C)c4)cc3C)cc2)cc1`, the carcinogen call is, setting by setting: (Species: RAT, Strain/Sex: F344/FEMALE, Route: ORAL, Dose: 0, 150, 300, 600 PPM IN DRINKING WATER 7 D/WK FOR 104 WK (STUDY DURATION: 104 WK), Dose: 0, 150, 300, 600 PPM IN DRINKING WATER 7 D/WK FOR 104 WK (STUDY DURATION: 104 WK), Tumor Site: Type of Lesion: CLITORAL GLAND: ADENOMA OR CARCINOMA, LIVER: NEOPLASTIC NODULE OR HEPATOCELLULAR CARCINOMA, LUNG: ALVEOLAR/BRONCHIOLAR A, Tumor Site: Type of Lesion: CLITORAL GLAND: ADENOMA OR CARCINOMA, LIVER: NEOPLASTIC NODULE OR HEPATOCELLULAR CARCINOMA, LUNG: ALVEOLAR/BRONCHIOLAR A) “active; positive”; (Species: RAT, Strain/Sex: F344/MALE, Route: ORAL, Dose: 0, 70, 150, 300 PPM IN DRINKING WATER 7 D/WK FOR 104 WK (STUDY DURATION: 104 WK), Dose: 0, 70, 150, 300 PPM IN DRINKING WATER 7 D/WK FOR 104 WK (STUDY DURATION: 104 WK), Tumor Site: Type of Lesion: LIVER: NEOPLASTIC NODULE OR HEPATOCELLULAR CARCINOMA, SKIN: BASAL CELL ADENOMA, BASAL CELL CARCINOMA, KERATOACANTHOMA, S) “active; positive”.

These data come from PubChem BioAssay AID1259411 (Chemical Carcinogenesis Research Information System (CCRIS), 2018).
